Source: patent US9181290B2, “Inhibition of biofilm formation by 1,2,3,4,6-penta-O-galloyl-D-glucopyranose” (CHANG GUNG UNIVERSITY, priority 2011, dated 2015)

How the values were obtained:
[1] = test system: S. aureus SA113 (ATCC 35556); assay: Biofilm formation on polycarbonate discs (crystal violet); format: cell-based; conditions: Staphylococcus aureus, ATCC35556, 6 hours, read-out: inhibition of biofilm formation on polycarbonate surface
Protocol: To quantify the amount of biofilm formed on polycarbonate surface, a 13-mm-diameter polycarbonate disc (Thermanox, Nalgene Nunc International, Rochester, N.Y., USA) was placed in a well of a 24-well microtiter plate, followed by the addition of 1 mL aliquot of the diluted bacterial culture. After incubation at 37° C. for a designated period of time, viable cells were washed off the surface of the polycarbonate disc with PBS and counted as described above, while the PBS-washed polycarbonate disc was subjected to crystal violet staining for biofilm quantification as described above.
To determine the effect(s) of (β-PGG upon bacterial growth and biofilm formation, β-PGG in various amounts (final concentration: 0, 1.56, 3.13, 6.25, 12.5, 25 and 50 μM) was added into the culture of S. aureus SA113 during seeding into the wells of polystyrene microtiter plates, followed by incubation at 37° C. for 6 hrs or 24 hrs. Cell growth was determined by measuring the absorbance at 578 nm, and the amount of biofilm formed on polystyrene surface was determined at 595 nm after crystal violet staining. In addition to polystyrene surface, the effect of β-PGG in inhibiting biofilm formation on polycarbonate surface was also examined according to the procedures as described in the preceding section entitled “Materials and methods.”

[2] = test system: Acinetobacter baumannii; assay: Anti-biofilm activity (data not shown); format: cell-based
[3] = test system: S. aureus clinical strain SA285 (MSSA); assay: Growth (A578) and biofilm (A595) in polystyrene plates; format: cell-based, Staphylococcus aureus; conditions: 12.5 μM β-PGG, 6 hr
Protocol: (§1) An overnight bacterial culture was 200-fold diluted with TSBg, and a 200 μL aliquot of the diluted culture was seeded into each well of 96-well polystyrene microtiter plates and incubated at 37° C. for a designated period of time. Cell growth was determined by measuring the absorbance at 578 nm (A578) with a microtiter plate reader (SpectraMax 340, Molecular Devices). After washing with PBS twice to remove suspended cells, the wells were stained with 0.1% (w/v) crystal violet in 10% ethanol and then treated with 30% acetic acid in dH2O, followed by detecting the absorbance at 595 nm (A595) with the microtiter plate reader to quantify the amount of biofilm formed on polystyrene surface.

[4] = test system: S. aureus clinical strain SA288 (MSSA); assay: as above; format: cell-based, Staphylococcus aureus; conditions: 12.5 μM β-PGG, 6 hr
Protocol: as §1

[5] = test system: S. aureus clinical strain SA44 (MRSA); assay: as above; format: cell-based, Staphylococcus aureus; conditions: 12.5 μM β-PGG, 6 hr
Protocol: as §1

[6] = test system: S. aureus clinical strain SA33 (MSSA); assay: as above; format: cell-based, Staphylococcus aureus; conditions: 12.5 μM β-PGG, 6 hr
Protocol: as §1

[7] = test system: S. aureus clinical strain SA41 (MSSA); assay: as above; format: cell-based, Staphylococcus aureus; conditions: 12.5 μM β-PGG, 6 hr
Protocol: as §1

[8] = test system: S. aureus clinical strain SA13 (MSSA); assay: as above; format: cell-based, Staphylococcus aureus; conditions: 12.5 μM β-PGG, 6 hr
Protocol: as §1

[9] = test system: S. aureus clinical strain SA435 (MRSA); assay: as above; format: cell-based, Staphylococcus aureus; conditions: 12.5 μM β-PGG, 6 hr
Protocol: as §1

[10] = test system: S. aureus clinical strain SA289 (MSSA); assay: as above; format: cell-based, Staphylococcus aureus; conditions: 12.5 μM β-PGG, 6 hr
Protocol: as §1

[11] = test system: S. aureus clinical strain SA486 (MRSA); assay: as above; format: cell-based, Staphylococcus aureus; conditions: 12.5 μM β-PGG, 6 hr
Protocol: as §1

[12] = test system: S. aureus clinical strain SAChu (MRSA); assay: as above; format: cell-based, Staphylococcus aureus; conditions: 12.5 μM β-PGG, 6 hr
Protocol: as §1

[13] = test system: S. aureus clinical strain SA130 (MRSA); assay: as above; format: cell-based, Staphylococcus aureus; conditions: 12.5 μM β-PGG, 6 hr
Protocol: as §1

[14] = test system: S. aureus clinical strain SA703 (MRSA); assay: as above; format: cell-based, Staphylococcus aureus; conditions: 12.5 μM β-PGG, 6 hr
Protocol: as §1

Compound: O=C(OC[C@H]1O[C@@H](OC(=O)c2cc(O)c(O)c(O)c2)[C@H](OC(=O)c2cc(O)c(O)c(O)c2)[C@@H](OC(=O)c2cc(O)c(O)c(O)c2)[C@@H]1OC(=O)c1cc(O)c(O)c(O)c1)c1cc(O)c(O)c(O)c1 [β-PGG, 1,2,3,4,6-penta-O-galloyl-β-D-glucopyranose]
- inhibition at 6.25 µM ([1]; 6.25 μM): 75%
- inhibition at 12.5 µM ([1]; 12.5 μM): 96%
- inhibition at 25 µM ([1]; 25 μM): 99%
- anti-biofilm activity [2]: potent to mild anti-biofilm activity
- Growth (A578) ([3]; 0 μM: 0.56 ± 0.09): 0.46 ± 0.03
- Biofilm (A595) ([3]; 0 μM: 0.86 ± 0.09): 0.16 ± 0.02
- Growth (A578) ([4]; 0 μM: 0.55 ± 0.01): 0.50 ± 0.01
- Biofilm (A595) ([4]; 0 μM: 0.83 ± 0.02): 0.10 ± 0.01
- Growth (A578) ([5]; 0 μM: 0.66 ± 0.08): 0.64 ± 0.04
- Biofilm (A595) ([5]; 0 μM: 1.33 ± 0.01): 0.46 ± 0.01
- Growth (A578) ([6]; 0 μM: 0.79 ± 0.01): 0.79 ± 0.04
- Biofilm (A595) ([6]; 0 μM: 0.80 ± 0.07): 0.13 ± 0.03
- Growth (A578) ([7]; 0 μM: 0.65 ± 0.02): 0.61 ± 0.05
- Biofilm (A595) ([7]; 0 μM: 1.67 ± 0.27): 0.36 ± 0.05
- Growth (A578) ([8]; 0 μM: 0.69 ± 0.09): 0.67 ± 0.06
- Biofilm (A595) ([8]; 0 μM: 0.98 ± 0.13): 0.12 ± 0.04
- Growth (A578) ([9]; 0 μM: 0.64 ± 0.10): 0.67 ± 0.09
- Biofilm (A595) ([9]; 0 μM: 0.97 ± 0.09): 0.46 ± 0.06
- Growth (A578) ([10]; 0 μM: 0.77 ± 0.02): 0.72 ± 0.07
- Biofilm (A595) ([10]; 0 μM: 1.16 ± 0.01): 0.35 ± 0.01
- Growth (A578) ([11]; 0 μM: 0.76 ± 0.08): 0.65 ± 0.02
- Biofilm (A595) ([11]; 0 μM: 1.94 ± 0.19): 0.26 ± 0.07
- Growth (A578) ([12]; 0 μM: 0.56 ± 0.02): 0.52 ± 0.04
- Biofilm (A595) ([12]; 0 μM: 8.06 ± 0.10): 0.77 ± 0.11
- Growth (A578) ([13]; 0 μM: 0.61 ± 0.12): 0.62 ± 0.17
- Biofilm (A595) ([13]; 0 μM: 3.05 ± 0.10): 0.32 ± 0.04
- Growth (A578) ([14]; 0 μM: 0.74 ± 0.10): 0.70 ± 0.07
- Biofilm (A595) ([14]; 0 μM: 2.33 ± 0.02): 0.88 ± 0.07
